# According to the NIST ThermoML archive (doi:10.1016/j.jct.2007.11.001):
# ± gives the expanded uncertainty stated by the source.
# Assay: Molar enthalpy of transition or fusion
# Settings: Crystal 2; Adiabatic calorimetry
smiles,measurement,value
O=P([O-])([O-])[O-].[Cs+].[Mg+2] [caesium-magnesium monophosphate],Molar enthalpy of transition or fusion,0.0648 ± 0.00598 kcal/mol
